Results as given in patent EP3409278B1, “HETEROCYCLIC PROTEIN KINASE INHIBITORS” (Tolero Pharmaceuticals, Inc., priority 2011, dated 2013).
Read-outs that look alike come from different tables or passages of the source.

Target: Pim-1 kinase (Homo sapiens, UniProt P11309)
Assay: Pim-1 kinase inhibition assay (Promega Kinase-Glo)
Format: biochemical
Excerpt: One illustrative manner in which Pim-1 kinase activity can be determined is by quantifying the amount of ATP remaining in solution after an in vitro Pim-1 kinase reaction. The Kinase-Glo Assay Kit (Promega, Inc., Madison, WI) allows this. The amount of ATP remaining in the solution after the kinase reaction serves as a substrate for the luciferase to catalyze luciferin to oxyluciferin plus one photon of light. Thus, the luminescent signal read by the Luminoskan Ascent Instrument (Thermo Electron Corp., Milford, MA) correlates with the amount of ATP present after the kinase reaction and inversely correlates with the amount of kinase acitivity. […] These assays are set up in duplicate 50ul volumes in white, flat bottom 96 well plates. […] This solution is incubated at 30 degrees Celsius at 360rpm for two hours. Following the incubation, 50ul of Kinase-Glo reagent is added to each well, including all positive and negative control wells, and incubated at room temperature for 15 minutes. […] The IC50 values can then be calculated for each inhibitor tested.

[1] = Table IV, Kinase-Glo, 10uM ATP, read-out: IC50 on Pim1

Pim-1 kinase, sequence (P11309 whole entry): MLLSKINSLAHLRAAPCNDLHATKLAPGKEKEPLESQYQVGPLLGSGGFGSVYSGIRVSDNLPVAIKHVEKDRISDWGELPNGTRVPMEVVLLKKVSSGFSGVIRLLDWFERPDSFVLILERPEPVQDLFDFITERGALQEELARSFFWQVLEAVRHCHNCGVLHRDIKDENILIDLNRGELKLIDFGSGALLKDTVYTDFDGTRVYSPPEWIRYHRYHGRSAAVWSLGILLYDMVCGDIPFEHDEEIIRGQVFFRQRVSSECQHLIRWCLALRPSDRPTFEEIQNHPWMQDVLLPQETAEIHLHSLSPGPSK

| SMILES | IC50 [1] | IC50 |
| --- | --- | --- |
| CC1(O)CCC(Nc2ccn3ncc(-c4cccc(C(F)(F)F)c4)c3n2)CC1 (single isomer, unassigned) [8-55, 1-Methyl-4-((3-(3-(trifluoromethyl)phenyl)pyrazolo[1,5-a]pyrimidin-5-yl)amino)-trans-cyclohexanol] | 54 nM |  |
| CC(C)(O)CCNc1ccc2ncc(-c3cccc(OC(F)(F)F)c3)n2n1 [8-3, 2-Methyl-4-((3-(3-(trifluoromethoxy)phenyl)imidazo[1,2-b]pyridazin-6-yl)amino)butan-2-ol] | 30 nM |  |
| O[C@H]1CC[C@H](Oc2ccc3ncc(-c4cccc(OC(F)(F)F)c4)n3n2)CC1 [8-4, 4-((3-(3-(Trifluoromethoxy)phenyl)imidazo[1,2-b]pyridazin-6-yl)oxy)-trans-cyclohexanol] | 7 nM |  |
| O[C@@H]1CC[C@@H](Nc2ccc3ncc(-c4cccc(OC(F)(F)F)c4)n3n2)C1 [8-5, (1R,3R)3-((3-(3-(Trifluoromethoxy)phenyl)imidazo[1,2-b]pyridazin-6-yl)amino)cyclopentanol] | 36 nM |  |
| CC(C)(O)CNc1ccc2ncc(-c3cccc(OC(F)(F)F)c3)n2n1 [8-6, 2-Methyl-1-((3-(3-(trifluoromethoxy)phenyl)imidazo[1.2-b]pyridazin-6-yl)amino)propan-2-ol] | 30 nM |  |
| O[C@H]1C[C@H](CNc2ccc3ncc(-c4cccc(OC(F)(F)F)c4)n3n2)C1 [8-7, 3-(((3-(3-(Trifluoromethoxy)phenyl)imidazo[1,2-b]pyridazin-6-yl)amino)methyl)-trans-cyclobutanol] | 10 nM |  |
| O=S1(=O)CCC(Nc2ccc3ncc(-c4cccc(OC(F)(F)F)c4)n3n2)CC1 [8-14, 4-((3-(3-(Trifluoromethoxy)pheny/)imidazo[1,2-]pyridazin-6-yl)amino)tetrahydro-2H-thiopyran 1,1-dioxide] | 1190 nM |  |
| O=S1(=O)CCN(c2ccc3ncc(-c4cccc(OC(F)(F)F)c4)n3n2)CC1 [8-15, 4-(3-(3-(Trifluoromethoxy)phenyl)imidazo[1,2-b]pyridazin-6-yl)thiomorpholine 1,1-dioxide] | 2830 nM |  |
| CC(C)O[C@H]1CC[C@H](Nc2ccc3ncc(-c4cccc(OC(F)(F)F)c4)n3n2)CC1 [8-16, 4-(trans-Isopropoxycyclohexyl)-3-(3-(trifluoromethoxy)phenyl)imidazo[1,2-b]pyridazin-6-amine] | 503 nM |  |
| FC1(F)CCC(CNc2ccc3ncc(-c4cccc(OC(F)(F)F)c4)n3n2)CC1 [8-17, N-((4,4-difluorocyclohexyl)methyl)-3-(3-(trifluoromethoxy)phenyl)imidazo[1,2-b]pyridazin-6-amine] |  | 173 nM |
| FC(F)(F)Oc1cccc(-c2cnc3ccc(NCC4CCSCC4)nn23)c1 [8-18, N-((tetrahydro-2H-thiopyran-4-yl)methyl)-3-(3-(trifluoromethoxy)phenyl)imidazo[1,2-b]pyridazin-6-amine] | 53 nM |  |
| FC(F)(F)Oc1cccc(-c2cnc3ccc(NCC4CCOCC4)nn23)c1 [8-19, N-((tetrahydro-2H-pyran-4-yl)methyl)-3-(3-(trifluoromethoxy)phenyl)imidazo[1,2-b]pyridazin-6-amine] | 13 nM |  |
| CC(C)(O)C(=O)N1CCC(CNc2ccc3ncc(-c4cccc(OC(F)(F)F)c4)n3n2)CC1 [8-20, 2-Hydroxy-2-methyl-1-(4-(((3-(3-(trifluoromethoxy)phenyl)imidazo[1,2-b]pyridazin-6-yl)amino)methyl)piperidin-1-yl)propan-1-one] | 16 nM |  |
| O=C(CN1CCOCC1)N1CCC(CNc2ccc3ncc(-c4cccc(OC(F)(F)F)c4)n3n2)CC1 [8-21, 2-Morpholino-1-(4-(((3-(3-(trifluoromethoxy)phenyl)imidazo[1,2-b]pyridazin-6-yl)amino)methyl)piperidin-1-yl)ethanone] | 46 nM |  |
| O=C1CC(CNc2ccc3ncc(-c4cccc(OC(F)(F)F)c4)n3n2)CCN1 (stereo not drawn) [8-23, 4-(((3-(3-(Trifluoromethoxy)phenyl)imidazo[1,2-b]pyridazin-6-yl)amino)methyl)piperidin-2-one] | 1630 nM |  |
| NCC1CCN(c2ccc3ncc(-c4cccc(OC(F)(F)F)c4)n3n2)C(=O)C1 (stereo not drawn) [8-24, 4-(Aminomethyl)-1-(3-(3-(trifluoromethoxy)phenyl)imidazo[1,2-b]pyridazin-6-y/)piperidin-2-one] | 34 nM |  |
| N[C@H]1CCCN(c2ccc3ncc(-c4cccc(OC(F)(F)F)c4)n3n2)C1 [8-25, (S)-1-(3-(3-(Trifluoromethoxy)phenyl)imidazo[1,2-b]pyridazin-6-yl)piperidin-3-amine] | 30 nM |  |
| OCCN1CCC(CNc2ccc3ncc(-c4cccc(OC(F)(F)F)c4)n3n2)CC1 [8-27, 2-(4-(((3-(3-(Trifluoromethoxy)phenyl)imidazo[1,2-b]pyridazin-6-yl)amino)methyl)piperidin-1-yl)ethanol] |  | 23 nM |
| FC(F)(F)Oc1cccc(-c2cnc3ccc(OCC4CCOCC4)nn23)c1 [8-28, 6-((Tetrahydro-2H-pyran-4-yl)methoxy)-3-(3-(trifluoromethoxy)phenyl)imidazo[1,2-b]pyridazine] | 553 nM |  |
| FC(F)(F)c1cccc(-c2cnc3ccc(NC4CCOCC4)nn23)c1 [8-33, N-(Tetrahydro-2H-pyran-4-yl)-3-(3-(trifluoromethyl)phenyl)imidazo[1,2-b]pyridazin-6-amine] | 33 nM |  |

| SMILES | IC50 [1] | IC50 |
| --- | --- | --- |
| CO[C@H]1CC[C@H](Nc2ccc3ncc(-c4cccc(Cl)c4)n3n2)CC1 [8-38, 3-(3-Chlorophenyl)-N-(4-trans-methoxycyclohexyl)imidazo[1,2-b]pyridazin-6-amine] | 18 nM |  |
| Clc1cccc(-c2cnc3ccc(NC4CCOCC4)nn23)c1 [8-39, 3-(3-Chlorophenyl)-N-(tetrahydro-2H-pyran-4-yl)imidazo[1,2-b]pyridazin-6-amine] | 48 nM |  |
| O=S1(=O)CCC(CNc2ccc3ncc(-c4cccc(Cl)c4)n3n2)CC1 [8-40] | 200 nM |  |
| CC(C)(O)CCOc1ccc2ncc(-c3cccc(OC(F)(F)F)c3)n2n1 [8-41, 2-Methyl-4-((3-(3-(Trifluoromethoxy)phenyl)imidazo[1,2-b]pyridazin-6-yl)oxy)butan-2-ol] | 226 nM |  |
| COCCOc1ccc2ncc(-c3cccc(OC(F)(F)F)c3)n2n1 [8-42, 6-(2-Methoxyethoxy)-3-(3-(trifluoromethoxy)phenyl)imidazo[1,2-b]pyridazine] | 1970 nM |  |
| CN(C)CC(=O)N1CCC(CNc2ccc3ncc(-c4cccc(OC(F)(F)F)c4)n3n2)CC1 [8-45, 2-(dimethylamino)-1-(4-(((3-(3-(trifluoromethoxy)phenyl)imidazo[1,2-b]pyridazin-6-yl)amino)methyl)piperidin-1-yl)ethanone] | 16 nM |  |
| CC(C)(O)[C@H]1CC[C@H](Nc2ccn3ncc(-c4cccc(OC(F)(F)F)c4)c3n2)CC1 [8-47] | 204 nM |  |
| C[C@]1(O)CC[C@H](Nc2ccn3ncc(-c4cccc(OC(F)(F)F)c4)c3n2)CC1 [8-48, 1-Methyl-4-((3-(3-(trifluoromethoxy)phenyl)pyrazolo[1,5-a]pyrimidin-5-yl)amino)-trans-cvclohexanol] | 197 nM |  |
| CO[C@H]1CC[C@H](Nc2ccn3ncc(-c4cccc(OC(F)(F)F)c4)c3n2)CC1 [8-49, 4-(trans-Methoxycyclohexyl)-3-(3-(trifluoromethoxy)phenyl)pyazolo[1,5-a]pyrimidin-5-amine] | 378 nM |  |
| FC(F)(F)Oc1cccc(-c2cnn3ccc(NC4CCOCC4)nc23)c1 [8-50, N-(Tetrahydro-2H-pyran-4-yl)-3-(3-(trifluoromethoxy)phenyl)pyrazolo[1,5-a]pyrimidin-5-amine] | 633 nM |  |
| O=S1(=O)CCC(CNc2ccn3ncc(-c4cccc(OC(F)(F)F)c4)c3n2)CC1 [8-51, 4-(((3-(3-(Trifluoromethoxy)phenyl)pyrazolo[1,5-a]pyrimidin-5-y/)amino)methyl)tetrahydro-2H-thiopyran 1,1-dioxide] | 148 nM |  |
| N[C@H]1CC[C@H](Nc2ccn3ncc(-c4cccc(OC(F)(F)F)c4)c3n2)CC1 [8-52, N-(3-(3-(Trifluoromethoxy)phenyl)pyrazolo[1,5-a]pyrimidin-5-yl)cyclohexane-1,4-trans-diamine] | 5 nM |  |
| N[C@H]1CCCN(c2ccn3ncc(-c4cccc(OC(F)(F)F)c4)c3n2)C1 [8-53, (S)-1-(3-(3-(Trifluoromethoxy)phenyl)pyrazolo[1,5-a]pyrimidin-5-yl)piperidin-3-amine] | 132 nM |  |
| CC(C)(O)[C@H]1CC[C@H](Nc2ccn3ncc(-c4cccc(C(F)(F)F)c4)c3n2)CC1 [8-56] | 17 nM |  |
| CO[C@H]1CC[C@H](Nc2ccn3ncc(-c4cccc(C(F)(F)F)c4)c3n2)CC1 [8-57, 4-(trans-Methoxycyclohexyl)-3-(3-(trifluoromethyl)phenyl)pyrazolo[1,5-a]pyrimidin-5-amine] | 66 nM |  |
| FC(F)(F)c1cccc(-c2cnn3ccc(NC4CCOCC4)nc23)c1 [8-58, N-(Tetrahydro-2H-pyran-4-yl)-3-(3-(trifluoromethyl)phenyl)pyrazolo[1,5-a]pyrimidin-5-amine] | 149 nM |  |
| O=S1(=O)CCC(CNc2ccn3ncc(-c4cccc(C(F)(F)F)c4)c3n2)CC1 [8-59, 4-(((3-(3-(Trifluoromethyl)phenyl)pyrazolo[1,5-a]pyrimidin-5-yl)amino)methyl)tetrahydro-2H-thiopyran 1,1-dioxide] | 111 nM |  |
| CC(C)(O)[C@H]1CC[C@H](Nc2ccn3ncc(-c4cccc(Cl)c4)c3n2)CC1 [8-63] | 23 nM |  |
| Clc1cccc(-c2cnn3ccc(NC4CCOCC4)nc23)c1 [8-65, 3-(3-Chlorophenyl)-N-(tetrahydro-2H-pyran-4-yl)pyrazolo[1,5-a]pyrimidin-5-amine] | 186 nM |  |
